From paper PMC11767819, “Drug Screening of Flavonoids as Potential VEGF Inhibitors Through Computational Docking and Cell Models” (Molecules, 2025)
Read-outs that look alike come from different tables or passages of the source.

Columns and labels:
[1] = Chemical stability test through HPLC analysis; format: physicochemical; conditions: for Inter-Day RSD / Inter-Day Mean Peak Area: 6 consecutive days; for Inter-Day RSD / Intra-Day RSD: n = 6; for Inter-Day Mean Peak Area / Intra-Day Mean Peak Area: n = 6, 210 nm; for Intra-Day RSD / Intra-Day Mean Peak Area: same day; for Stability in aqueous solution (in words): acidic, neutral and basic conditions, HPLC
Text: Chemical degradation has been a major factor resulting in molecular hydrolysis, oxidation, light-catalyzed degradation and so on. Therefore, stability in aqueous solution, including acidic, neutral and basic conditions, has become a crucial requirement for a promising drug candidate. Prior to the biochemical assay, three phytochemicals were subjected to HPLC analysis to determine their stabilities in various solutions. Glycine buffer (pH 8–11), PBS (pH 7–8) and acetate buffer (pH 4–6) were employed to cover the main pH ranges. […].
The stability test was validated by determining the intra-day and inter-day variability through HPLC analysis, which was performed on an Agilent 1200 Liquid Chromatography (Santa Clara, CA, USA) equipped with an ODS C18 column (4.6 mm × 250 mm). Glycine buffer (pH 8–11), PBS (pH 7–8) and acetate buffer (pH 4–6) were employed to cover main pH ranges. Stock solutions at a concentration of 10 mM of the test compounds were prepared in DMSO and stored at −20 °C, while working concentrations were prepared at 1–5 μM solution in DMSO and buffers. Chromatography was conducted through the ORBAX XDB-C18 column (Agilent, 4.6 × 50 mm, 1.8 μm). The mobile phase was a mixture of water and acetonitrile (95:5, v/v), and the elution time was 15 min. The mobile phase flow rate and injection volume were 1.0 mL/min and 10 μL, respectively. Analytes were detected at a 210 nm wavelength. The intra-day and inter-day stability was calculated by analyzing six replicates of the standard solution of the two analytes during a single day and six replicates of the samples detected on six consecutive days, respectively. Thereafter, the relative standard deviation (RSD) was determined as a measurement of stability.

[2] = molecular target: T1, VEGF protein (Homo sapiens, UniProt P15692); assay: Ultrafiltration-based affinity assay; format: binding; conditions: ligand 0.02 µM, VEGF protein 0.02 µM, 4 °C, 2 h, n = 4
T1 construct: purchased MCE
T1 sequence (P15692 1-191 isoform P15692-4): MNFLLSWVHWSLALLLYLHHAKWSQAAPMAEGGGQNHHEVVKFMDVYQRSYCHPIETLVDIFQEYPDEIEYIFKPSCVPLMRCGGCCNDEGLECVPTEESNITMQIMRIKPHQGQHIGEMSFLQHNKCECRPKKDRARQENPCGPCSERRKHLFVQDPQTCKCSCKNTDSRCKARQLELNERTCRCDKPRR
Procedure: Caco-2 cells were cultured until fully differentiated after being cultured for 21 days, and the integrity of cell monolayer was determined by the transepithelial electrical resistance (TEER). * p < 0.05. […] Red curve: initial concentration of chemicals; black curve: concentration of chemicals binding to the protein (Cpre − Cpost). n = 4.
The binding affinity was evaluated through the previous approach. Specifically, the tested ligands at 0.02 µM were mixed with or without 0.02 µM of the VEGF protein (MCE, Monmouth Junction, NJ, USA) and incubated in Milli-Q water (Burlington, MA, USA) at 4 °C for 2 h. The mixture was transferred to a 0.5 mL ultrafiltration tube (2000 MW cutoff; Sartorius Stedim Biotech, Gottingen, Germany). After multiple rounds of centrifugation, the supernatant was further analyzed through HPLC investigation, as described above in Section 4.6.

[3] = tested on: HaCaT cells; assay: MTT cell viability assay; format: cell-based, human; conditions: concentrations up to 100 µM, 24 h
Procedure: Cell viability was assessed with the MTT assay to evaluate the potential toxicity effect of the tested drugs. HaCaT cells were seeded onto 96-well plates for 24 h prior to drug treatments. After incubations for 24 h, an MTT solution in a final concentration of 0.5 mg/mL was added to each well. Following another 3 h of incubation, DMSO solvent was used to dissolve the purple formazan crystals generated in each well. The absorbance of the samples at 570 nm was measured using a microplate reader (Thermo Fisher Scientific). The cell viability was calculated as follows: cytotoxicity (%) = (experimental value − low control)/(high control − low control) × 100%.

[4] = tested on: HaCaT cells; assay: Wound closure (wound healing) assay, VEGF-induced; format: cell-based; conditions: Homo sapiens, 20 h, read-out: IC50 of inhibition of wound recovery rate
Procedure: Photos of each cell scrape at 0 (At0) and 20 h (At20) were captured with microscope and imaging software (Zen, https://www.zeiss.com/microscopy/en/home.html, accessed on 1 September 2024) at a 10× magnification. […] A: positive control, Avastin; F: farrerol; O: ononin; E: (−)-epicatechin.
A wound closure assay was performed on cultured HaCaT cells to study cell migration in vitro. Procedures were described previously by Guo et al.. Briefly, HaCaT cells were seeded onto a 12-well plate with a density of 3 × 10^5 cells/well. Treatments were given when cells grew to full confluency. After serum starvation, sterile 200 μL pipette tips were used to make a vertical and a horizontal scrape on the cell monolayer in a consistent manner. Cells were washed with PBS and treated with drugs at various concentrations. Photos of each cell scrape at 0 (At0) and 20 h (At20) were captured with a microscope and imaging software (Zen) at a 10× magnification. The software TScratch (CSE lab, Zurich, Switzerland, https://github.com/cselab/TScratch, accessed on 1 September 2024) was used to analyze the open area of each scrape photo at different timepoints. Quantification of the recovery rate of the wound was calculated based on the following equation: wound closure (%) = (At0 − At20)/At20 × 100%.

[5] = tested on: NF-κB in RAW 264.3 cells; assay: Luciferase activity of NF-κB, VEGF-induced; format: cell-based; conditions: chemicals 1, 10 and 25 µM, avastin 10 ng/mL
Procedure: The luciferase of NK-κB activity was performed following a previous report. Briefly, RAW 264.3 cells were transfected with pNF-κB (Thermo Fisher Scientific) using jetPRIME and incubated for 24 h. The refresh medium was replaced every four hours, and drug treatments were added twice after 24 h or 48 h. Upon completion of the reaction, the chemical luminescent intensity was determined by a luminometer (Promega, WI, USA) and normalized by protein concentrations.

[6] = tested on: endothelial cells; conditions: cell proliferation and migration in endothelial cells, phosphorylation of PI3-K/Akt, JNK and eNOS; cited from earlier work
[7] = tested on: tumor growth; conditions: nude mice; cited from earlier work

| Compound | Inter-Day RSD ([1]; acidic (acetate buffer pH 4–6)) [%] | Inter-Day Mean Peak Area ([1]; acidic (acetate buffer pH 4–6)) | Intra-Day RSD ([1]; acidic (acetate buffer pH 4–6)) [%] | Intra-Day Mean Peak Area ([1]; acidic (acetate buffer pH 4–6)) | Inter-Day RSD ([1]; basic (glycine buffer pH 8–11)) [%] | Inter-Day Mean Peak Area ([1]; basic (glycine buffer pH 8–11)) | Intra-Day RSD ([1]; basic (glycine buffer pH 8–11)) [%] | Intra-Day Mean Peak Area ([1]; basic (glycine buffer pH 8–11)) | Inter-Day RSD ([1]; neutral (PBS pH 7–8)) [%] | Inter-Day Mean Peak Area ([1]; neutral (PBS pH 7–8)) | Intra-Day RSD ([1]; neutral (PBS pH 7–8)) [%] | Intra-Day Mean Peak Area ([1]; neutral (PBS pH 7–8)) | protein binding degree [2] [%] | Stability in aqueous solution (in words) [1] | Cell viability (cytotoxic effect) [3] | IC50 ([4]; HaCaT cells, VEGF-induced) [µM] | Effect on VEGF-induced NF-κB activity (in words) [5] | IC50 ([4]; HaCaT) [µM] | Inhibition of VEGF-mediated biological activities (in words) [6] | Tumor growth (in words) [7] |
| --- | --- | --- | --- | --- | --- | --- | --- | --- | --- | --- | --- | --- | --- | --- | --- | --- | --- | --- | --- | --- |
| Oc1cc(O)c2c(c1)O[C@H](c1ccc(O)c(O)c1)[C@H](O)C2 [(−)-epicatechin] | 11.91 | 2510.4 | 3.98 | 2751.5 | 13.58 | 2519.4 | 4.85 | 2726.0 | 7.56 | 2601.7 | 1.38 | 2826.6 | 50.3 | some mild degradation of (−)-epicatechin was induced in acidic and basic environments | cells remained unaffected | 9.2 | suppressed in dose-dependent manners |  |  |  |
| OC[C@H]1O[C@@H](Oc2cc(O)cc(/C=C/c3ccc(O)cc3)c2)[C@H](O)[C@@H](O)[C@@H]1O [polydatin] |  |  |  |  |  |  |  |  |  |  |  |  |  |  |  |  |  |  | robust inhibition |  |
| Oc1ccc(/C=C/c2cc(O)cc(O)c2)cc1 [resveratrol] |  |  |  |  |  |  |  |  |  |  |  |  |  |  |  |  |  |  | robust inhibition | significantly suppress tumor growth |
| avastin: Bevacizumab (avastin), first monoclonal antibody targeting the VEGF protein; positive control |  |  |  |  |  |  |  |  |  |  |  |  |  |  |  |  | attenuate the NF-κB signal |  |  |  |

Second part, led by results:

| Inter-Day RSD ([1]; acidic (acetate buffer pH 4–6)) [%] | Inter-Day Mean Peak Area ([1]; acidic (acetate buffer pH 4–6)) | Intra-Day RSD ([1]; acidic (acetate buffer pH 4–6)) [%] | Intra-Day Mean Peak Area ([1]; acidic (acetate buffer pH 4–6)) | Inter-Day RSD ([1]; basic (glycine buffer pH 8–11)) [%] | Inter-Day Mean Peak Area ([1]; basic (glycine buffer pH 8–11)) | Intra-Day RSD ([1]; basic (glycine buffer pH 8–11)) [%] | Intra-Day Mean Peak Area ([1]; basic (glycine buffer pH 8–11)) | Inter-Day RSD ([1]; neutral (PBS pH 7–8)) [%] | Inter-Day Mean Peak Area ([1]; neutral (PBS pH 7–8)) | Intra-Day RSD ([1]; neutral (PBS pH 7–8)) [%] | Intra-Day Mean Peak Area ([1]; neutral (PBS pH 7–8)) | protein binding degree [2] [%] | Compound | Stability in aqueous solution (in words) [1] | Cell viability (cytotoxic effect) [3] | IC50 ([4]; HaCaT cells, VEGF-induced) [µM] | Effect on VEGF-induced NF-κB activity (in words) [5] | IC50 ([4]; HaCaT) [µM] | Inhibition of VEGF-mediated biological activities (in words) [6] | Tumor growth (in words) [7] |
| --- | --- | --- | --- | --- | --- | --- | --- | --- | --- | --- | --- | --- | --- | --- | --- | --- | --- | --- | --- | --- |
| 5.89 | 38,145.2 | 4.09 | 31,803.7 | 6.54 | 35,412.4 | 2.81 | 33,332.4 | 4.43 | 36,478.1 | 4.79 | 31,542.0 | 58.3 | Cc1c(O)c(C)c2c(c1O)C(=O)C[C@@H](c1ccc(O)cc1)O2 [farrerol] | relatively stable in diverse aqueous conditions | cells remained unaffected |  |  | 4.7 |  |  |
| 4.12 | 275,981.3 | 1.93 | 254,398.2 | 4.78 | 274,514.7 | 3.12 | 273,422.8 | 3.65 | 265,877.4 | 1.61 | 313,200.4 | 53.4 | COc1ccc(-c2coc3cc(O[C@@H]4O[C@H](CO)[C@@H](O)[C@H](O)[C@H]4O)ccc3c2=O)cc1 [ononin] | relatively stable in diverse aqueous conditions | cells remained unaffected | 3.8 | suppressed in dose-dependent manners |  |  |  |
